Data: patent publication US4818749A, “Carboxyalkyl dipeptides and medical use thereof in treating hypertension and congestive heart failure” (Schering Corporation, priority 1981, dated 1989)

target: T1, angiotensin converting enzyme (ACE) (Rattus norvegicus, UniProt P47820); test: ACE inhibition in anesthetized rats: inhibition of angiotensin I pressor response after iv test drug; format: in vivo, Sprague-Dawley rats; settings: anesthetized Sprague-Dawley rats; drug iv; angiotensin I challenge 5 min after dosing; blood pressure response as percent of control; linear regression
T1 construct: Drugs were injected intravenously; from tissue; host or cells: whole living animal (anesthetized Sprague-Dawley rat); no enzyme isolated
T1 sequence (P47820 36-1313): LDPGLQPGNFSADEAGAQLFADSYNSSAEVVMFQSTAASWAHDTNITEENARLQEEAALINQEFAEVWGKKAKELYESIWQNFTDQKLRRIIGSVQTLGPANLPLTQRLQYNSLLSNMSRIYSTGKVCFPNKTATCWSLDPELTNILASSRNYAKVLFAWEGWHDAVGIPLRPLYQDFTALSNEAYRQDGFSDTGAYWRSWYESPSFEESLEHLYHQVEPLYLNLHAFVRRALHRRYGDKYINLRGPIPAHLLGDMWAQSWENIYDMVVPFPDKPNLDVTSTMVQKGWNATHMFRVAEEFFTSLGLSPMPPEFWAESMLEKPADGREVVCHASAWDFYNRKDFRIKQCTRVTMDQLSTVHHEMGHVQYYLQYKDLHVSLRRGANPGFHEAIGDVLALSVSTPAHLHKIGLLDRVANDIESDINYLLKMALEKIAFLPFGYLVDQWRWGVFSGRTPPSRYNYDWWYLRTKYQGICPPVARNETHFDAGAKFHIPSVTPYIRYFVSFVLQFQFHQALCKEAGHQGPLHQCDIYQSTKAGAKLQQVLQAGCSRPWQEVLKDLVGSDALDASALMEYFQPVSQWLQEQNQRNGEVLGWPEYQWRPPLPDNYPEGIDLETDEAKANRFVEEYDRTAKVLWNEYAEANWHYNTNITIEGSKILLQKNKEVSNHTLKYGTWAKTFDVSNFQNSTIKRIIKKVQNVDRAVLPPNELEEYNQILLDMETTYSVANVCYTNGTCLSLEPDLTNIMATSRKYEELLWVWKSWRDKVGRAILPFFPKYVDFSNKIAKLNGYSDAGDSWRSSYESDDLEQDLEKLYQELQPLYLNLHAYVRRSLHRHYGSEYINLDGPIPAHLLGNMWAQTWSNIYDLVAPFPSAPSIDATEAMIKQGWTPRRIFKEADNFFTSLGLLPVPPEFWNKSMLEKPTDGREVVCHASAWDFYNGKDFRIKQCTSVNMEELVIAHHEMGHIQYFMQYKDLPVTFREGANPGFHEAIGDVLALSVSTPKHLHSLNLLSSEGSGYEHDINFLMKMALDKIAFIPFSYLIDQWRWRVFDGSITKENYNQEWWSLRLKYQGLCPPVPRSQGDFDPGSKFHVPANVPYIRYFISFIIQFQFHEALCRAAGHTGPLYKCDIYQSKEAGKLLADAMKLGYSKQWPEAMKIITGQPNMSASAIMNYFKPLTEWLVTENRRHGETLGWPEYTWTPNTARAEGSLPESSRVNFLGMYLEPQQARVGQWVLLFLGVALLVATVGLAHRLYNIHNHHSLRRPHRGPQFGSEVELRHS

**Q.** For `CCOC(=O)[C@H](CSCCc1ccccc1)N[C@@H](C)C(=O)N1C2CCCCC2C[C@H]1C(=O)O.Cl` (relative stereo) [Compound 8, 1-[N-[1(R)-Ethoxycarbonyl-2-(phenylethylthio)ethyl]-(S)alanyl]-cis,syn-perhydroindole-2(S)-carboxylic acid hydrochloride], which ID50 is on record?
**A.** 32 µg/kg

**Q.** With `C[C@H](N[C@@H](CCc1ccc(C(=O)O)cc1)C(=O)O)C(=O)N1C2CCCCC2C[C@H]1C(=O)O` (relative stereo) [Compound 10, 1-[N-[1(S)-Carboxy-3-(4-carboxyphenyl)propyl]-(S)-alanyl]-cis,syn-perhydroindole-2(S)-carboxylic acid] as the compound, how does the ID50 read?
**A.** 11 µg/kg

**Q.** Which ID50 does the source give for `CCOC(=O)[C@H](COCc1ccccc1)NC(C)C(=O)N1CCC[C@H]1C(=O)O.Cl` (stereo partly drawn) [Compound 2, N-(1(S)-Ethoxycarbonyl-2-benzyloxyethyl)-(R,S)-alanyl-(S)-proline hydrochloride] here?
**A.** 130 µg/kg

**Q.** `C[C@H](N[C@@H](CCc1ccccc1)C(=O)O)C(=O)N1CCC[C@H]1C(=O)O` [enalapril diacid, reference compound] was tested. Which ID50 did it give?
**A.** 15 ± 3 µg/kg

**Q.** `CCOC(=O)[C@H](CSCCc1ccccc1)N[C@H](C)C(=O)N1[C@H](C(=O)O)C[C@@H]2CCCC[C@@H]21.Cl` (relative stereo) [Compound 9, 1-[N-[1(R)-Ethoxycarbonyl-2-(phenylethylthio)ethyl]-(R)alanyl]-cis,syn-perhydroindole-2(S)-carboxylic acid hydrochloride] was tested. Which ID50 did it give?
**A.** > 1,000 μg/kg

**Q.** For `CCOC(=O)[C@H](CSCc1ccc(C)cc1)NC(C)C(=O)N1C2CCCCC2C[C@H]1C(=O)O` (relative stereo) [4-methylbenzyl-thiomethyl, 1-[N-[1(R)-Ethoxycarbonyl-2-(4-methylbenzylthio)ethyl]-(R,S)-alanyl]-cis,syn-perhydroindole-2(S)-carboxylic acid], which ID50 is on record?
**A.** 88 µg/kg

**Q.** With `CCOC(=O)[C@H](CSCc1ccccc1)N[C@@H](C)C(=O)N1[C@H](C(=O)O)C[C@@H]2CCCC[C@@H]21` (relative stereo) [Compound 4, 1-[N-[1(R)-EthoxYcarbonyl-2-(benzylthio)ethyl]-(S)-alanyl]-cis,syn-perhydroindole-2(S)-carboxylic acid] as the compound, how does the ID50 read?
**A.** 29 µg/kg

**Q.** For `CCOC(=O)[C@H](CSCc1ccccc1)NC(C)C(=O)N1C2CCCCC2C[C@H]1C(=O)O.Cl` (relative stereo) [Compound 3, 1-[N-[1(R)-Ethoxycarbonyl-2-(benzylthio)ethyl]-(R,S)-alanyl]-cis,syn-perhydroindole-2(S)-carboxylic acid, hydrochloride], which ID50 is on record?
**A.** 30 µg/kg

**Q.** For `Br.CCOC(=O)[C@H](CSCc1ccccc1)N[C@H](C)C(=O)N1[C@H](C(=O)O)C[C@@H]2CCCC[C@@H]21` (relative stereo) [Compound 5, 1-[N-[1(R)-Ethoxycarbonyl-2-(benzylthio)ethyl]-(R)-alanyl]-cis,syn-perhydroindole-2(S)-carboxylic acid, hydrobromide], which ID50 is on record?
**A.** 350 µg/kg

**Q.** Which ID50 does the source give for `CCOC(=O)[C@H](CSCc1ccc2ccccc2c1)N[C@@H](C)C(=O)N1[C@H](C(=O)O)C[C@@H]2CCCC[C@@H]21.Cl` (relative stereo) [Compound 6, 1-[N-[1(R)-Ethoxycarbonyl-2-(2-naphthylmethylthio)ethyl]-(S)-alanyl]-cis,syn-perhydroindole-2(S)-carboxylic acid hydrochloride] here?
**A.** > 100 µg/kg

**Q.** How did the ID50 turn out when `CCOC(=O)[C@H](CSCc1ccc2ccccc2c1)N[C@H](C)C(=O)N1C2CCCCC2C[C@H]1C(=O)O.Cl` (relative stereo) [Compound 7, 1-[N-[1(R)-Ethoxycarbonyl-2-(2-naphthylmethylthio)ethyl]-(R)alanyl]-cis,syn-perhydroindole-2(S)-carboxylic acid hydrochloride] was run?
**A.** > 1,000 μg/kg

**Q.** With `CCOC(=O)[C@H](CSCc1ccccc1)NC(C)C(=O)N1CCC[C@H]1C(=O)O.Cl` (stereo partly drawn) [Compound 1, N-(1(R)-Ethoxycarbonyl-2-benzylthioethyl)-(R,S)-alanyl-(S)-proline hydrochloride] as the compound, how does the ID50 read?
**A.** 66 µg/kg

same assay, conditions: rat, iv, 5 min, read-out: ID50

**Q.** Which ED50 does the source give for `CCOC(=O)[C@H](CCc1ccccc1)N[C@@H](C)C(=O)N1CCC[C@H]1C(=O)O` [enalapril, reference compound] here?
**A.** 0.057 ± 0.007 mg/kg
